From patent US10654814B2, “Bicyclic hydroxamic acids useful as inhibitors of mammalian histone deacetylase activity” (KANCERA AB, priority 2015, dated 2020)
Where a name gives a salt, the structure may show the parent alone. Read-outs that look alike come from different tables or passages of the source.

Assays:
Format in all cases: biochemical
[1] = biological target: HDAC1 (Homo sapiens (Human), UniProt Q13547); assay: HDAC1 in vitro enzymatic assay (fluorescence); conditions: Table 4 selectivity profiling
Method: (§1) Biological Tests Method for Measurement of Enzymatic Activity of HDACs Materials & Methods
(§2) All Examples were tested in HDAC1,2,3,6 and 8 in vitro enzymatic assays. The assay principle is well known (Hauser et al. 2009, Bradner et al. 2010) and all necessary reagents like enzymes, substrates, developer and reference compounds are commercially available (see e.g. BPS Biosciences http://www.bpsbioscience.com/). Stock solutions (10 mM in DMSO) of compounds were serially diluted 1:3 in 11 concentrations with a top concentration of 200 μM for HDAC1,2,3 and 2 μM for HDAC6 and HDAC8. The enzymatic reactions were conducted in a mixture containing assay buffer, bovine serum albumin, HDAC substrate, and a test compound. After enzymatic reaction, developer was added and after an additional incubation time, fluorescence intensity was measured at an excitation wavelength of 360 nm and an emission wavelength of 460 nm. All experiments were performed in duplicate.

[2] = biological target: HDAC8 (Homo sapiens (Human), UniProt Q9BY41); assay: HDAC8 in vitro enzymatic assay (fluorescence); conditions: Table 4 selectivity profiling
Method: as §1, §2

[3] = biological target: HDAC2 (Homo sapiens (Human), UniProt Q92769); assay: HDAC2 in vitro enzymatic assay (fluorescence); conditions: Table 4 selectivity profiling
Method: as §1, §2

[4] = biological target: HDAC3 (Homo sapiens (Human), UniProt O15379); assay: HDAC3 in vitro enzymatic assay (fluorescence); conditions: Table 4 selectivity profiling
Method: as §1, §2

[5] = biological target: HDAC6 (Homo sapiens (Human), UniProt Q9UBN7); assay: HDAC6 in vitro enzymatic assay (fluorescence)
Method: as §1, §2

[6] = Table 3, read-out: IC50 (nM) for inhibition of HDAC6
[7] = Table 4 selectivity profiling, read-out: IC50 (nM) HDAC6

HDAC2, sequence (Q92769 whole entry): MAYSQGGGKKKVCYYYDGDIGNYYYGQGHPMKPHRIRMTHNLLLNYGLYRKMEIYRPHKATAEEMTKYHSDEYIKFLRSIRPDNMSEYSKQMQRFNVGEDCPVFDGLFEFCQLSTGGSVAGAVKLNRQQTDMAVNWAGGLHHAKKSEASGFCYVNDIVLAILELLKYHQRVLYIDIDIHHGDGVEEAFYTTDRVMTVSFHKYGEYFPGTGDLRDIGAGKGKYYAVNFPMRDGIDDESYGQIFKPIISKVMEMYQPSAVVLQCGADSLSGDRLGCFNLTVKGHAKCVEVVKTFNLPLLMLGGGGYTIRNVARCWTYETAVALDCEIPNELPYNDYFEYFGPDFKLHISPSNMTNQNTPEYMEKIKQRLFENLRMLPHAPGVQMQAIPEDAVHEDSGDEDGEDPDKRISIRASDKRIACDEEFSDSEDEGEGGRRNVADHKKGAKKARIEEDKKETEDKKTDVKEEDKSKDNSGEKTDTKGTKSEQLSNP
HDAC6, sequence (Q9UBN7 whole entry): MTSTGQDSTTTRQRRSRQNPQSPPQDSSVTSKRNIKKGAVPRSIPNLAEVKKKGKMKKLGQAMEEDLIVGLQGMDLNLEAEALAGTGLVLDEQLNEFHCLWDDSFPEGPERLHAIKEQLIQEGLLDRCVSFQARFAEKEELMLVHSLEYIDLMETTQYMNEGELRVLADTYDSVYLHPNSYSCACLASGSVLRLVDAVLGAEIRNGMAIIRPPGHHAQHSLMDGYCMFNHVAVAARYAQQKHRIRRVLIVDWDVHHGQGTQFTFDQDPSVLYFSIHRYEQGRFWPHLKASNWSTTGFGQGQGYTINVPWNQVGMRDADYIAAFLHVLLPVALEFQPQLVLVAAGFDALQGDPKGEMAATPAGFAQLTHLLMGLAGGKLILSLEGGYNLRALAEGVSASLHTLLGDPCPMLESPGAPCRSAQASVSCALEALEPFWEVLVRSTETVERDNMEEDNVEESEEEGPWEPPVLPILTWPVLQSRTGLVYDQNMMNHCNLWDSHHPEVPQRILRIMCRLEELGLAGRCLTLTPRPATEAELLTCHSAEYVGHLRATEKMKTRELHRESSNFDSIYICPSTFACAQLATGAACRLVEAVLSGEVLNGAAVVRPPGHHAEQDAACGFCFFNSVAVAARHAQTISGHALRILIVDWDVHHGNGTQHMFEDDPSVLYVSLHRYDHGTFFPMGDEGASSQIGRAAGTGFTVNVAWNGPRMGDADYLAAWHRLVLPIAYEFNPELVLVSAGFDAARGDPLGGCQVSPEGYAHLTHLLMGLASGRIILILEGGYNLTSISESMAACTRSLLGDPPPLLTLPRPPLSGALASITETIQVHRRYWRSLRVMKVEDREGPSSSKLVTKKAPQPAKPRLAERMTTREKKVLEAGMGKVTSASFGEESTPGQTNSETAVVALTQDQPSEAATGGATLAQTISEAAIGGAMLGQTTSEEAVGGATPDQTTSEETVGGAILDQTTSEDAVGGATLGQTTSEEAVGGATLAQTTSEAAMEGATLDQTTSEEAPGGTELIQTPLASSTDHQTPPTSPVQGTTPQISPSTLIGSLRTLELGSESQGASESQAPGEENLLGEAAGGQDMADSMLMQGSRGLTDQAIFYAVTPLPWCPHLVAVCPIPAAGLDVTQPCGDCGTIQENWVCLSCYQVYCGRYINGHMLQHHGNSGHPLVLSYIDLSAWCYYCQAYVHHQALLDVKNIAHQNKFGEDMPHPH
HDAC3, sequence (O15379 whole entry): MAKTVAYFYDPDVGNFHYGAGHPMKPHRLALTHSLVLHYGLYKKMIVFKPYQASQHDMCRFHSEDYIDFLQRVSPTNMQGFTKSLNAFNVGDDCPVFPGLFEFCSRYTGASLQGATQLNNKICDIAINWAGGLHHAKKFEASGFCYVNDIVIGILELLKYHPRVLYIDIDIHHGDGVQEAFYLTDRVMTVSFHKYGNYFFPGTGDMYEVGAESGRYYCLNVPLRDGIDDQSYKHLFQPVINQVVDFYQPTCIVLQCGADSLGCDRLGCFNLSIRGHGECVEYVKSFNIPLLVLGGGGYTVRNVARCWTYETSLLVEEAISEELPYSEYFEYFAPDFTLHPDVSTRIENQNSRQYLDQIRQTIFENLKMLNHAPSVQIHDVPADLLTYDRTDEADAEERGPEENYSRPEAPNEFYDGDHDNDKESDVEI
HDAC3, sequence (Q9Y618 395-489 partner): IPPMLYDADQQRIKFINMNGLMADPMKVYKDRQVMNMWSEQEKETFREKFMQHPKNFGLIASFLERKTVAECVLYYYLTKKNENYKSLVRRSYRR
HDAC1, sequence (Q13547 whole entry): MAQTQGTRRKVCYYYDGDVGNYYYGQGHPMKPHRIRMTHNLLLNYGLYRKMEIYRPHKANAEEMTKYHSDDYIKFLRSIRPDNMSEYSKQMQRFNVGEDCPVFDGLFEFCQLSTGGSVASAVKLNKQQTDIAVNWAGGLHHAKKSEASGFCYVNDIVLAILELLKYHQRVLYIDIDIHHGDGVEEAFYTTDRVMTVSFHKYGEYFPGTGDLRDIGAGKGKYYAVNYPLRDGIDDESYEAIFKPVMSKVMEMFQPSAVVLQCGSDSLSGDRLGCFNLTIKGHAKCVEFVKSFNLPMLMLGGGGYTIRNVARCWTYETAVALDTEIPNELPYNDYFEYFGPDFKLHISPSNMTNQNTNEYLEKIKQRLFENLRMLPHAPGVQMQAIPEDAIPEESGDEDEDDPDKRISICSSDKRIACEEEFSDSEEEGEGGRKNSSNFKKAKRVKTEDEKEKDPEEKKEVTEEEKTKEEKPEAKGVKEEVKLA
HDAC8, sequence (Q9BY41 whole entry): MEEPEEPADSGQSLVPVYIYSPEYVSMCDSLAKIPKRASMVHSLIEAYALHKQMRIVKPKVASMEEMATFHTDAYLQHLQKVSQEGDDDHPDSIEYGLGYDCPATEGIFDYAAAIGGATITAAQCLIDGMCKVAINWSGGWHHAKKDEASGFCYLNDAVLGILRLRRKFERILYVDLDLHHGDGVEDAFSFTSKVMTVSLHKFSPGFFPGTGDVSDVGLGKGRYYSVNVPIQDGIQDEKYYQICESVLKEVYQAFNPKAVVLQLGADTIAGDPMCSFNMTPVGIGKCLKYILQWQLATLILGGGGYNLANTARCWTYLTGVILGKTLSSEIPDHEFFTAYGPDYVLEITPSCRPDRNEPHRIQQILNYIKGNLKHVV

Structure (SMILES)	IC50 [1] [nM]	IC50 [2] [nM]	IC50 [3] [nM]	IC50 [4] [nM]	IC50 [5, 6] [nM]	IC50 [5, 7] [nM]
O=C(NO)c1ccc2oc(-c3ccccc3Cl)nc2c1 [Example 12, 2-(2-chlorophenyl)-N-hydroxy-1,3-benzoxazole-5-carboxamide]	1200	880	52000	560	5	5
O=C(NO)c1ccc2oc(-c3ccc(C(F)(F)F)cc3)nc2c1 [Example 18, N-hydroxy-2-[4-(trifluoromethyl)phenyl]-1,3-benzoxazole-5-carboxamide]	2000	1300	11000	1600		37
O=C(NO)c1ccc2oc(-c3ccc(C4CC4)cc3)nc2c1 [Example 29, 2-(4-Cyclopropylphenyl)-N-hydroxy-1,3-benzoxazole-5-carboxamide]	2100	1400	10000	1000	10	10
O=C(NO)c1ccc2nc(-c3cccc4cccnc34)sc2c1 [Example 70, N-hydroxy-2-quinolin-8-yl-1,3-benzothiazole-6-carboxamide]	6100	320	19000	2300		65
O=C(NO)c1ccc2sc(-c3ccc(F)cc3)nc2c1 [Example 76, 2-(4-Fluorophenyl)-N-hydroxy-1,3-benzothiazole-5-carboxamide]	1500	340	6600	450	18	18
O=C(NO)c1ccc2sc(-c3cccnc3)cc2c1 [Example 96, N-hydroxy-2-pyridin-3-yl-1-benzothiophene-5-carboxamide]	9700	960	55000	7200	64	64
Cc1noc(C)c1-c1cc2cc(C(=O)NO)ccc2s1 [Example 100, 2-(3,5-dimethylisoxazol-4-yl)-N-hydroxy-1-benzothiophene-5-carboxamide]	14000	760	74000	18000	36	36
CC(C)c1ccc(-c2cc3cc(C(=O)NO)cnc3o2)cc1 [Example 113, N-Hydroxy-2-[4-(1-methylethyl)phenyl]furo[2,3-b]pyridine-5-carboxamide]	500	120	2000	330	22	22
CCN(CC)Cc1cc2ccc(C(=O)NO)cc2o1 [Example 117, 2-[(Diethylamino)methyl]-N-hydroxy-1-benzofuran-6-carboxamide trifluoroacetate]	19000	1400	69000	25000	64	26
O=C(NO)c1ccc2nc(Nc3cccc(OCc4ccccc4)c3)[nH]c2c1 [Example 132, 2-((3-(benzyloxy)phenyl)amino)-N-hydroxy-1H-benzo[d]imidazole-6-carboxamide]	1200	240	24000	370	17	17
O=C(NO)c1ccc2oc(COc3cccc(F)c3)cc2c1 [Example 162, 2-[(3-Fluorophenoxy)methyl]-N-hydroxy-1-benzofuran-5-carboxamide]	550	1500	3500	320	7	7
COc1ccc(-c2ccc(-c3nc4cc(C(=O)NO)ccc4o3)c(F)c2)cn1 [Example 176, 2-[2-fluoro-4-(6-methoxypyridin-3-yl)phenyl]-N-hydroxy-1,3-benzoxazole-5-carboxamide]	> 200000	384	> 200000	960		16
Cc1ccc(Nc2nc3cc(C(=O)NO)ccc3o2)cc1 [Example 263, N-hydroxy-2-[(4-methylphenyl)amino]-1,3-benzoxazole-5-carboxamide]					9	
O=C(NO)c1ccc2sc(COCc3ccccc3)nc2c1 [Example 270, 2-[(Benzyloxy)methyl]-N-hydroxy-1,3-benzothiazole-5-carboxamide]					4	
O=C(NO)c1ccc2sc(CO)nc2c1 [Example 271, N-Hydroxy-2-(hydroxymethyl)-1,3-benzothiazole-5-carboxamide]					37	
O=C(NO)c1ccc2sc(Cc3ccc(-c4ccncc4)cc3)nc2c1 [Example 272, N-Hydroxy-2-(4-pyridin-4-ylbenzyl)-1,3-benzothiazole-5-carboxamide trifluoroacetate]					6	
O=C(NO)c1ccc2sc(CN3CCCCC3)nc2c1 [Example 273, N-Hydroxy-2-(piperidin-1-ylmethyl)-1,3-benzothiazole-5-carboxamide]					16	
CC(C)CN(Cc1nc2cc(C(=O)NO)ccc2s1)CC(C)C [Example 274, 2-{[Bis(2-methylpropyl)amino]methyl}-N-hydroxy-1,3-benzothiazole-5-carboxamide trifluoroacetate]					16	
CC(C)c1ccc(NCc2nc3cc(C(=O)NO)ccc3s2)cc1 [Example 275, N-Hydroxy-2-({[4-(1-methylethyl)phenyl]amino}methyl)-1,3-benzothiazole-5-carboxamide]					8	
COc1ccc(-c2cc3cc(C(=O)NO)ccc3o2)cn1 [Example 278, N-hydroxy-2-(6-methoxypyridin-3-yl)-1-benzofuran-5-carboxamide]					96	
O=C(NO)c1ccc2oc(-c3ccccc3CO)cc2c1 [Example 281, N-hydroxy-2-[2-(hydroxymethyl)phenyl]-1-benzofuran-5-carboxamide]					92	
O=C(NO)c1ccc2cc(-c3ccccc3)oc2c1 [Example 282, N-Hydroxy-2-phenyl-1-benzofuran-6-carboxamide]					9	
CN(C)Cc1ccc(-c2cc3ccc(C(=O)NO)cc3o2)cc1 [Example 283, 2-{4-[(dimethylamino)methyl]phenyl}-N-hydroxy-1-benzofuran-6-carboxamide trifluoroacetate]					7	
O=C(NO)c1ccc2cc(-c3cccc(O)c3)oc2c1 [Example 284, N-hydroxy-2-(3-hydroxypheny)-1-benzofuran-6-carboxamide]					4	
COc1cccc(-c2cc3ccc(C(=O)NO)cc3o2)c1 [Example 285, N-hydroxy-2-(3-methoxyphenyl)-1-benzofuran-6-carboxamide]	470	210	6900	640	4	4
